Test results published in patent US10104891B2 (priority 2014, dated 2018).

Legend:
Assay type in all cases: in vivo
[1] = tested on: Pseudoperonospora cubensis; assay: Test 2: control effect against cucumber downy mildew; details: control value vs untreated section; for pest or weed control at 4 µg/mL: Pseudoperonospora cubensis, 120 h
Method: (§1) A 10% wettable powder created according to the Pharmaceutical Formulation Example 1 was diluted with a Tween20 solution prepared to a concentration of 1/5000, then the compound of formula [1] was prepared to a concentration of 4 ppm. Further, the compound of formula [1] in Test 4 was adjusted to a concentration of 1,000 ppm.
<Test 2 Test of Control Effect Against Cucumber Downy Mildew>
(§2) Test suspension was applied to cucumber at the 2 leaf stage (species: Sagami hanjiro) in an amount of 20 ml per seedling. One day after application, zoospore suspension of Pseudoperonospora cubensis adjusted to a concentration of 1.0×10^4 units/ml was misted/inoculated, and the seedlings were incubated in a moist chamber adjusted to 22° C. for 16 hr. Then, the onset of the disease was induced in the chamber, and the lesion area rate on the leaves 5 days after inoculation was investigated to compute the control value using the formula below. control value={1−onset area rate of the leaves that were applied the test agent/onset area rate of untreated leaves}×100 Computational formula of the control value: […]

Phytophthora infestans = assay: whole plant or invertebrate; details: for control value (Test 1): tomato late blight, control value vs untreated section; for pest or weed control at 4 µg/mL: Phytophthora infestans, in Solanum lycopersicum, 96 h, read-out: control value (Test 1)
Plasmopara viticola = assay: Test 3: control effect against grape downy mildew; details: control value vs untreated section; for pest or weed control at 4 µg/mL: Plasmopara viticola, 120 h
Method: as §1
<Test 3 Test of Control Effect Against Grape Downy Mildew>
as §2, with “grape seedling” for “cucumber at the 2 leaf stage”, “Neomuscat)” for “Sagami hanjiro)”, “Plasmopara viticola” for “Pseudoperonospora cubensis”

SMILES	control value (Test 2) [1]	control value (Test 1) (Phytophthora infestans)	control value (Test 3) (Plasmopara viticola)	pest or weed control at 4 µg/mL [1] [%]	pest or weed control at 4 µg/mL (Phytophthora infestans) [%]	pest or weed control at 4 µg/mL (Plasmopara viticola) [%]
Cc1cc(C)n(CC(=O)N2CCC(c3nc(C4OCc5cccc(OS(C)(=O)=O)c5CO4)cs3)CC2)n1 (stereo not drawn) [Compound 1-105]	100	100	100			
Cc1cc(C(F)(F)F)nn1CC(=S)N1CCC(c2nc(C3OCc4cccc(OS(C)(=O)=O)c4CO3)cs2)CC1 (stereo not drawn) [Compound 1-106]	100	100	100			
Cc1cc(C(F)(F)F)nn1CC(=S)N1CCC(c2nc(C3OCc4c(F)ccc(OS(C)(=O)=O)c4CO3)cs2)CC1 (stereo not drawn) [Compound 1-107]	100	100	100			
COc1ccc(OS(C)(=O)=O)c2c1COC(c1csc(C3CCN(C(=O)Cn4nc(C(F)(F)F)cc4Cl)CC3)n1)OC2 (stereo not drawn) [Compound 1-108]	100	100	100			
COc1ccc(OS(C)(=O)=O)c2c1COC(c1csc(C3CCN(C(=O)Cn4nc(Cl)cc4Cl)CC3)n1)OC2 (stereo not drawn) [Compound 1-109, 4-[4-(6-methoxy-9-methylsulfonyloxy-1,5-dihydro-3H-2,4-benzodioxepin-3-yl)-2-thiazolyl]-1-[2-(3,5-dichloro-1H-pyrazole-1-yl)acetyl]piperidine]				100	100	100
COc1ccc(Cl)c2c1COC(c1csc(C3CCN(C(=O)Cn4nc(C(F)(F)F)cc4C(F)(F)F)CC3)n1)OC2 (stereo not drawn) [Compound 1-110]	100	100	100			
O=C(Cn1nc(C(F)(F)F)cc1C(F)(F)F)N1CCC(c2nc(C3OCc4cccc(Br)c4CO3)cs2)CC1 (stereo not drawn) [Compound 1-111]	100	100	100			
COc1ccc(Cl)c2c1COC(c1csc(C3CCN(C(=O)Cn4nc(C(F)F)cc4C(F)F)CC3)n1)OC2 (stereo not drawn) [Compound 1-112]	100	100	100			
O=C(Cn1nc(C(F)(F)F)cc1C(F)(F)F)N1CCC(c2nc(C3OCc4cccc([N+](=O)[O-])c4CO3)cs2)CC1 (stereo not drawn) [Compound 1-114]	100	100	100			
COc1ccc(OS(C)(=O)=O)c2c1COC(c1csc(C3CCN(C(=O)Cn4nc(C)cc4C)CC3)n1)OC2 (stereo not drawn) [Compound 1-115, 4-[4-(6-methoxy-9-methylsulfonyloxy-1,5-dihydro-3H-2,4-benzodioxepin-3-yl)-2-thiazolyl]-1-[2-[3,5-dimethyl-1H-pyrazole-1-yl]acetyl]piperidine]				100	100	100
CS(=O)(=O)Oc1ccc(Cl)c2c1COC(c1csc(C3CCN(C(=O)Cn4nc(C(F)F)cc4C(F)F)CC3)n1)OC2 (stereo not drawn) [Compound 1-116]	100	100	100			
COc1ccc(OS(C)(=O)=O)c2c1COC(c1csc(C3CCN(C(=O)Cn4nc(C(F)(F)F)cc4C(F)(F)F)CC3)n1)OC2 (stereo not drawn) [Compound 1-117]	100	100	100			
CS(=O)(=O)Oc1ccc(Cl)c2c1COC(c1csc(C3CCN(C(=O)Cn4nc(C(F)(F)F)cc4C(F)(F)F)CC3)n1)OC2 (stereo not drawn) [Compound 1-118]	100	100	100			
CS(=O)(=O)Oc1cccc2c1COC(c1csc(C3CCN(C(=O)Cn4nc(C(Cl)Cl)cc4C(Cl)Cl)CC3)n1)OC2 (stereo not drawn) [Compound 1-119, 4-[4-(6-methylsulfonyloxy-1,5-dihydro-3H-2,4-benzodioxepin-3-yl)-2-thiazolyl]-1-[2-[3,5-bis(dichloromethyl)-1H-pyrazole-1-yl]acetyl]piperidine]				100	100	100
Cc1cc(C)n(CC(=O)N2CCC(c3nc(C4OCc5c(F)ccc(OS(C)(=O)=O)c5CO4)cs3)CC2)n1 (stereo not drawn) [Compound 1-120]	100	100	100			
Cc1cc(OS(C)(=O)=O)c2c(c1C)COC(c1csc(C3CCN(C(=O)Cn4nc(C(F)F)cc4C(F)F)CC3)n1)OC2 (stereo not drawn) [Compound 1-121]	100	100	100			
Cc1cc(OS(C)(=O)=O)c2c(c1C)COC(c1csc(C3CCN(C(=O)Cn4nc(C(F)(F)F)cc4C(F)(F)F)CC3)n1)OC2 (stereo not drawn) [Compound 1-122]	100	100	100			
CS(=O)(=O)Oc1ccc(Br)c2c1COC(c1csc(C3CCN(C(=O)Cn4nc(C(F)(F)F)cc4C(F)(F)F)CC3)n1)OC2 (stereo not drawn) [Compound 1-123, 4-[4-(6-bromo-9-methylsulfonyloxy-1,5-dihydro-3H-2,4-benzodioxepin-3-yl)-2-thiazolyl]-1-[2-[3,5-bis(trifluoromethyl)-1H-pyrazole-1-yl]acetyl]piperidine]				100	100	100
CS(=O)(=O)Oc1ccc([N+](=O)[O-])c2c1COC(c1csc(C3CCN(C(=O)Cn4nc(C(F)F)cc4C(F)F)CC3)n1)OC2 (stereo not drawn) [Compound 1-124]	100	100	100			
CS(=O)(=O)Oc1ccc(Br)c2c1COC(c1csc(C3CCN(C(=O)Cn4nc(C(F)F)cc4C(F)F)CC3)n1)OC2 (stereo not drawn) [Compound 1-125]	100	100	100			
O=C(Cn1nc(C(F)F)cc1C(F)F)N1CCC(c2nc(C3OCc4cccc([N+](=O)[O-])c4CO3)cs2)CC1 (stereo not drawn) [Compound 1-126]	100	100	100			
Cc1cc(C(F)(F)F)nn1CC(=O)N1CCN(c2nc(C3OCc4cccc(OS(C)(=O)=O)c4CO3)cs2)CC1 (stereo not drawn) [Compound 1-127]	100	100	100			
CS(=O)(=O)Oc1ccc([N+](=O)[O-])c2c1COC(c1csc(C3CCN(C(=O)Cn4nc(C(F)(F)F)cc4C(F)(F)F)CC3)n1)OC2 (stereo not drawn) [Compound 1-128]	100	100	100			
CS(=O)(=O)Oc1ccc(I)c2c1COC(c1csc(C3CCN(C(=O)Cn4nc(C(F)(F)F)cc4C(F)(F)F)CC3)n1)OC2 (stereo not drawn) [Compound 1-129, 4-[4-(6-iodo-9-methylsulfonyloxy-1,5-dihydro-3H-2,4-benzodioxepin-3-yl)-2-thiazolyl]-1-[2-[3,5-bis(trifluoromethyl)-1H-pyrazole-1-yl]acetyl]piperidine]				100	100	100
CS(=O)(=O)Oc1ccc(I)c2c1COC(c1csc(C3CCN(C(=O)Cn4nc(C(F)F)cc4C(F)F)CC3)n1)OC2 (stereo not drawn) [Compound 1-130]	100	100	100			
CS(=O)(=O)Oc1c(F)ccc2c1COC(c1csc(C3CCN(C(=O)Cn4nc(C(F)(F)F)cc4C(F)(F)F)CC3)n1)OC2 (stereo not drawn) [Compound 1-131, 4-[4-(7-fluoro-6-methylsulfonyloxy-1,5-dihydro-3H-2,4-benzodioxepin-3-yl)-2-thiazolyl]-1-[2-[3,5-bis(trifluoromethyl)-1H-pyrazole-1-yl]acetyl]piperidine]				100	100	100
CS(=O)(=O)Oc1c(F)ccc2c1COC(c1csc(C3CCN(C(=O)Cn4nc(C(F)F)cc4C(F)F)CC3)n1)OC2 (stereo not drawn) [Compound 1-132, 4-[4-(7-fluoro-6-methylsulfonyloxy-1,5-dihydro-3H-2,4-benzodioxepin-3-yl)-2-thiazolyl]-1-[2-[3,5-bis(difluoromethyl)-1H-pyrazole-1-yl]acetyl]piperidine]				100	100	100
COc1ccc(C)c2c1COC(c1csc(C3CCN(C(=O)Cn4nc(C(F)(F)F)cc4C(F)(F)F)CC3)n1)OC2 (stereo not drawn) [Compound 1-134]	100	100	100			
COc1cccc2c1COC(c1csc(C3CCN(C(=O)Cn4nc(C(F)(F)F)cc4C)CC3)n1)OC2 (stereo not drawn) [Compound 1-135]	100	100	100			
O=C(Cn1nc(C(F)F)cc1C(F)F)N1CCC(c2nc(C3OCc4cccc(OC(F)F)c4CO3)cs2)CC1 (stereo not drawn) [Compound 1-136]	100	100	100			
